Data as given in patent US8993606B2, “Oral formulations for treating metal overload” (FerroKin BioSciences, Inc., priority 2011, dated 2015).
Like-named read-outs stand apart in the source and are kept apart here.

Legend:
[1] = Preliminary analysis of pharmacokinetic results from the clinical studies as a whole; type: in vivo, human
From the text: The results were similar across the common doses in the 4 studies. […] See also FIG. 10.

[2] = Example 8: single-dose study in healthy human subjects 3-16 mg/kg (PK); type: in vivo; conditions: for half-life / AUC(0-t) / AUC(0-inf) / Cmax / Tmax: male, human, plasma; for AUC(0-t) / Cmax / Tmax: mean of 3 subjects
From the text: Example 8 was a double-blind, placebo-controlled single dose-escalating study in healthy subjects. Men between the ages of 18-45 years qualified to participate if they were able to voluntarily give consent and had no clinically significant abnormal findings at the screening evaluation. Specifically, subjects had blood pressure in the normal range, ECG and clinical laboratory values within normal limits, tested negative for drugs of abuse and had not recently donated blood. Subjects were also HIV, Hepatitis B, and Hepatitis C negative and agreed to use an approved method of contraception during the study.
The objectives of this study were to assess the safety, tolerability, and pharmacokinetics of ascending single doses of Compound 1 compared to placebo. Additionally, dose proportionality and pharmacodynamics of Compound 1 were assessed. Four doses of Compound 1 (3, 6, 10, and 16 mg/kg), in capsule form, were evaluated in this study. Following screening, subjects in a given cohort were randomly assigned to receive either Compound 1 or placebo. In the first cohort, 3 subjects received […] and 2 received placebo; in each of the subsequent remaining 3 cohorts, 3 subjects received the next higher dose of Compound 1 and 1 received placebo. Subjects were dosed and then confined to the clinical research unit for 24 hours to conduct safety and pharmacokinetic assessments. Subjects were released from the clinic on Day 2 and returned daily for follow-up visits for 5 days post-dosing.
All 12 subjects who received a dose of Compound 1 were included in the analysis of pharmacokinetic parameters. All 17 subjects enrolled in the study were included in the analysis of pharmacodynamics.
Blood samples for determination of total (free and iron bound complex) plasma Compound 1 concentrations were collected on Day 1 at pre-dose (within 60 minutes prior to dose administration) and then at 0.25, 0.5, 0.75, 1, 1.5, 2, 2.5, 3, 3.5, 4, 8, 12 hours post-dose; on Day 2 at 24 and 36 hours post-dose; on Day 3 at 48 hours post-dose, on Day 4 at 72 hours post-dose; and on Day 5 at 96 hours post-dose.
Total urine collection for pharmacokinetic and pharmacodynamic assessment was performed at pre-dose and then for intervals 0-4, 4-8, 8-12, 12-24 hours post-dose. Collection of total urine for 24 hours post-dose for pharmacokinetic analysis was complete for all subjects who received a dose of Compound 1. It was noted, however, that Subject R105 (placebo) voided into the toilet once (at 3 minutes post-dose) during the 0-4 hour post-dose urine collection interval.

[3] = test system: patients with transfusional iron overload; test: Example 11: efficacy study, serum ferritin; type: in vivo, human
Procedure: The goal of this experiment was to: 1. evaluate the safety and tolerability based on clinical assessments of two doses (16 and 32 mg/kg/d) of Compound 1 when administered daily for 24 weeks to patients with transfusional iron overload; 2. identify a differential response between dose groups in liver iron concentration determined by magnetic resonance imaging (MRI) after 24 weeks of dosing; and 3. assess the safety and efficacy activity of Compound 1 when administered daily for up to 96 weeks.
This experiment is an open-label, randomized study of two dose levels (16 and 32 mg/kg/d) of Compound 1 administered once daily for 24 weeks to eligible patients with transfusional iron overload requiring chelation therapy, with a dosing extension of 72 additional weeks.
Patients were assigned to one of two strate: “high” or “low” transfusion burden based on the average iron intake of the six transfusion sessions. Patients within each transfusion burden groups were randomized to one of two Compound 1 treatment arms: 16 mg/kg/d (16 mpk) or 32 mg/kg/d (32 mpk). The stratification followed by randomization to treatment arms helps to ensure an equal distribution of patients with “high” and “low” transfusion burdens to the high or low dose of Compound 1. Each treatment arm received one dose of Compound 1 daily for 24 weeks.
At the conclusion of the 24 week dosing period, patients who qualify and consent to continue treatment continued for an additional 72 weeks of Compound 1 dosing.
The inclusion of 25 patients in each treatment group provided a statistical power of 0.80 to detect, within 6 months, an LIC difference (normalized for initial LIC) of 3 mg/g dry weight between the two dose groups as determined by MRI. Baseline characteristics between dose groups were compared using Fisher extract test or Wilcoxon rank sum test as appropriate. The change in baseline to week 12, 24, and 72 values for all pharmacodynamics parameters were analyzed by an ANCOVA model with main effect for treatment group with baselines value for the corresponding parameters and transfusion burdon (iron input) during the study and baseline liver iron concentration as covariates comparing the two active treatment groups. T2* values were natural log transformed and summarized as the geometric mean (the antilog of the mean of the log data) plus or minus the co-efficient of variation (CV) defined as square root of eMSE where MSE is defined as the mean square error and subject to ANCOVA setting the p value as the threshold for statistical significance at 0.05 (confidence level of 95%).

[4] = single oral dose 10 mg/kg, mean
[5] = single oral dose 16 mg/kg, mean

With `COCCOCCOCCOc1cccc(C2=N[C@@](C)(C(=O)O)CS2)c1O` [Compound 1, (S)-4,5-Dihydro-2-[2-hydroxy-3-(3,6,9-trioxadecyloxy)phenyl]-4-methyl-4-thiazolecarboxylate magnesium hydroxide] the dose proportionality ([1]; dosing range of 3 to 50 mg/kg, preliminary analysis) was “dose-proportionality in Cmax and AUC”, the Tmax ([1]; human, plasma, oral, in each study) was roughly 1 h and the “dose dependence of mean Cmax and AUC” value ([2]; 3-16 mg/kg) was “linear across the dose range”. The “total fraction of administered drug excreted in urine over 24 hour, range” value ([2]; across all 4 dose levels) was 19-83%, the “total fraction of administered drug excreted in urine over 24 hour, average” value ([2]; all 4 dose levels, standard deviation 18%) was 59% and the half-life ([2]; oral, 11 of 12 subjects, 3-16 mg/kg, read-out: median t1/2 (converted)) was 7.32 h. The half-life ([2]; oral, 11 of 12 subjects, 3-16 mg/kg, read-out: t1/2, range) was 3.77 to 35.2 h, the half-life ([2]; oral, 11 of 12 subjects, 3-16 mg/kg, standard deviation 10.1, read-out: mean t1/2 (converted)) was 12.8 h and the AUC(0-t) ([2]; po, 3 mg/kg, single oral dose 3 mg/kg, read-out: AUC0-24) was 12100 ng·h/mL. The AUC(0-t) ([2]; po, 3 mg/kg, single oral dose 3 mg/kg, read-out: AUC0-t) was 12100 ng·h/mL, the half-life ([2]; po, 3 mg/kg, single oral dose 3 mg/kg, mean, read-out: t1/2 (converted)) was 4.4 h and the AUC(0-t) ([2]; po, 6 mg/kg, single oral dose 6 mg/kg, read-out: AUC0-24) was 24700 ng·h/mL. The AUC(0-t) ([2]; po, 6 mg/kg, single oral dose 6 mg/kg, read-out: AUC0-t) was 25300 ng·h/mL, the half-life ([2]; po, 6 mg/kg, single oral dose 6 mg/kg, mean, read-out: t1/2 (converted)) was 15.4 h and the AUC(0-t) ([2]; po, 10 mg/kg, single oral dose 10 mg/kg, read-out: AUC0-24) was 42700 ng·h/mL. The AUC(0-t) ([2]; po, 10 mg/kg, single oral dose 10 mg/kg, read-out: AUC0-t) was 43400 ng·h/mL, the half-life ([2]; po, 10 mg/kg, single oral dose 10 mg/kg, mean, read-out: t1/2 (converted)) was 16.1 h and the AUC(0-t) ([2]; po, 16 mg/kg, single oral dose 16 mg/kg, read-out: AUC0-24) was 74600 ng·h/mL. It also gave an AUC(0-t) ([2]; po, 16 mg/kg, single oral dose 16 mg/kg, read-out: AUC0-t) of 75400 ng·h/mL, a half-life ([2]; po, 16 mg/kg, single oral dose 16 mg/kg, mean, read-out: t1/2 (converted)) of 16.1 h and an AUC(0-inf) ([2]; single oral dose 3 mg/kg, mean) of 12200 ng·h/mL. It also gave a Cmax ([2]; single oral dose 3 mg/kg) of 5410 ng/mL, a Tmax ([2]; single oral dose 3 mg/kg) of 1.33 h and an AUC(0-inf) ([2]; single oral dose 6 mg/kg, mean) of 26600 ng·h/mL. For the same molecule, the Cmax ([2]; single oral dose 6 mg/kg) was 12200 ng/mL, the Tmax ([2]; single oral dose 6 mg/kg) was 0.92 h and the AUC(0-inf) [2, 4] was 43600 ng·h/mL. The Cmax ([2]; single oral dose 10 mg/kg) was 16600 ng/mL, the Tmax ([2]; single oral dose 10 mg/kg) was 1.17 h and the AUC(0-inf) [2, 5] was 75600 ng·h/mL. The Cmax ([2]; single oral dose 16 mg/kg) was 34800 ng/mL, the Tmax ([2]; single oral dose 16 mg/kg) was 1 h and the kel ([2]; single oral dose 3 mg/kg, mean) was 0.1595 h⁻¹. The kel ([2]; single oral dose 6 mg/kg, mean) was 0.0469 h⁻¹, the kel [2, 4] was 0.0562 h⁻¹ and the kel [2, 5] was 0.0779 h⁻¹. The “Serum Ferritin Change from Baseline to Week 72, Geometric Mean” value (shortened to “Serum Ferritin Change … Geometric Mean”) ([3]; 16 mg/kg/d group) was 1.14, the “Serum Ferritin Change from Baseline to Week 72, Mean” value ([3]; 16 mg/kg/d group) was 233.21 and the “Serum Ferritin Change from Baseline to Week 72, Median” value (“Serum Ferritin Change … Median” below) ([3]; 16 mg/kg/d group) was 231.50. For the same molecule, the “Serum Ferritin Week 72, Geometric Mean” value ([3]; 16 mg/kg/d group) was 2418.49, the “Serum Ferritin Week 72, Mean” value ([3]; 16 mg/kg/d group) was 2873.93 and the “Serum Ferritin Week 72, Median” value ([3]; 16 mg/kg/d group) was 2544.50. For the same molecule, the “Serum Ferritin Change … Geometric Mean” value ([3]; 32 mg/kg/d group) was 0.89, the “Serum Ferritin Change from Baseline to Week 72, Mean” value ([3]; 32 mg/kg/d group) was −150.82 and the “Serum Ferritin Change … Median” value ([3]; 32 mg/kg/d group) was −436.00. The “Serum Ferritin Week 72, Geometric Mean” value ([3]; 32 mg/kg/d group) was 2441.03, the “Serum Ferritin Week 72, Mean” value ([3]; 32 mg/kg/d group) was 3026.82 and the “Serum Ferritin Week 72, Median” value ([3]; 32 mg/kg/d group) was 2396.00. The “Serum Ferritin Change … Geometric Mean” value ([3]; Total) was 0.99, the “Serum Ferritin Change from Baseline to Week 72, Mean” value ([3]; Total) was 22.61 and the “Serum Ferritin Change … Median” value ([3]; Total) was −56.00. The “Serum Ferritin Week 72, Geometric Mean” value ([3]; Total) was 2430.83, the “Serum Ferritin Week 72, Mean” value ([3]; Total) was 2957.77 and the “Serum Ferritin Week 72, Median” value ([3]; Total) was 2398.00.
